{"source": "patent US9273043B2", "about": "“TRPV1 antagonists including dihydroxy substituent and uses thereof” (Purdue Pharma L.P., priority 2011, dated 2016)", "tested_on": "FCA-induced inflammation of the rat hind paw", "experiment": "Freund's complete adjuvant (FCA) model of inflammatory pain, paw withdrawal threshold", "type": "in vivo", "settings": "for % Reversal [mean]: rat FCA", "procedure": "Test Animals: Each experiment uses rats weighing between 200-260 g at the start of the experiment. The rats are group-housed and have free access to food and water at all times, except prior to oral administration of a Compound of Formula (I) when food is removed for 16 hours before dosing. A control group acts as a comparison to rats treated with a Compound of Formula (I). The control group is administered the vehicle for the Compound of Formula (I). The volume of vehicle administered to the control group is the same as the volume of carrier and Compound of Formula (I) administered to the test group.\nInflammatory Pain: To assess the actions of a Compound of Formula (I) for the treatment or prevention of inflammatory pain, the Freund's complete adjuvant (“FCA”) model of inflammatory pain was used. FCA-induced inflammation of the rat hind paw is associated with the development of persistent inflammatory mechanical hyperalgesia and provides reliable prediction of the anti-hyperalgesic action of clinically useful analgesic drugs (Bartho et al., “Involvement of capsaicin-sensitive neurons in hyperalgesia and enhanced opioid antinociception in inflammation,” Naunyn-Schmiedeberg's Archives of Pharmacol. 342:666-670 (1990)). The right hind paw of each male, 6-week old Jcl:SD rat was administered a 50 μL intraplantar injection of 50% FCA (Sigma-Aldrich). 24 hour post-injection, the animal was assessed for response to noxious mechanical stimuli by determining the PWT, as described below. Rats were then administered a single injection of 0.1, 0.3, 1, 3, or 10 mg/kg of either the product prepared with Compound A155(a) and fumaric acid as described in Example 10, 20 mg/kg of an ibuprofen control (EMD Millipore Chemicals, Inc.), or vehicle as a control (0.5% weight/volume methylcellulose (400cP, Wako Pure Chemical Industries, Ltd., Osaka, Japan)/aqueous solution). […] Responses to noxious mechanical stimuli were then determined 1, 3, 5, and 7 hours post-administration. Percentage reversal of hyperalgesia for each animal was defined as: […]\nWith the exception of the controls (i.e., ibuprofen, vehicle) where the student's t-test was used, Dunnett's test was conducted for the % reversal. In either instance, values with p<0.05 were considered to be statistically significant. The % reversal results for administration of the product prepared with Compound A155(a) and fumaric acid as described in Example 10 and the respective controls are presented in Table 7.\nResponse to Mechanical Stimuli as an Assessment of Mechanical Hyperalgesia: The paw pressure assay was used to assess mechanical hyperalgesia. For this assay, hind paw withdrawal thresholds (PWT) to a noxious mechanical stimulus were determined using an analgesymeter (Model 37215, commercially available from Ugo Basile of Italy) as described in Stein, “Unilateral Inflammation of the Hindpaw in Rats as a Model of Prolonged Noxious Stimulation: Alterations in Behavior and Nociceptive Thresholds,” Pharmacol. Biochem. and Behavior 31:451-455 (1988). The maximum weight that could be applied to the hind paw was set at 250 g and the end point was taken as complete withdrawal of the paw. PWT was determined once for each rat at each time point and either only the affected (ipsilateral) paw was tested, or both the ipsilateral and contralateral (non-injured) paw were tested.", "note": "Marks after values point to notes of the source that are not given here.", "data": [{"smiles": "CC1CN(c2ncc(C(O)CO)cc2F)CCN1C(=O)Nc1nc2cc(F)ccc2s1.O=C(O)C=CC(=O)O", "note": "(stereo not drawn)", "values": [{"measurement": "minimal effective dose", "setting": "rat FCA model", "value": 0.1, "unit": "mg/kg"}, {"measurement": "% Reversal [mean]", "setting": "0.1 mg/kg, 1 h after administration", "value": "31.9** %"}, {"measurement": "% Reversal [mean]", "setting": "0.1 mg/kg, 1 h after administration, listed as product prepared with Compound A155(a) and fumaric acid", "value": 31.9, "unit": "%"}, {"measurement": "% Reversal [mean]", "setting": "0.1 mg/kg, 3 h after administration", "value": "37.8** %"}, {"measurement": "% Reversal [mean]", "setting": "0.1 mg/kg, 3 h after administration, listed as product prepared with Compound A155(a) and fumaric acid", "value": 37.8, "unit": "%"}, {"measurement": "% Reversal [mean]", "setting": "0.1 mg/kg, 5 h after administration", "value": "31.3** %"}, {"measurement": "% Reversal [mean]", "setting": "0.1 mg/kg, 5 h after administration, listed as product prepared with Compound A155(a) and fumaric acid", "value": 31.3, "unit": "%"}, {"measurement": "% Reversal [mean]", "setting": "0.1 mg/kg, 7 h after administration", "value": "23.6** %"}, {"measurement": "% Reversal [mean]", "setting": "0.1 mg/kg, 7 h after administration, listed as product prepared with Compound A155(a) and fumaric acid", "value": 23.6, "unit": "%"}, {"measurement": "% Reversal [mean]", "setting": "0.3 mg/kg, 1 h after administration", "value": "65.0** %"}, {"measurement": "% Reversal [mean]", "setting": "0.3 mg/kg, 1 h after administration, listed as product prepared with Compound A155(a) and fumaric acid", "value": 65.0, "unit": "%"}, {"measurement": "% Reversal [mean]", "setting": "0.3 mg/kg, 3 h after administration", "value": "60.2** %"}, {"measurement": "% Reversal [mean]", "setting": "0.3 mg/kg, 3 h after administration, listed as product prepared with Compound A155(a) and fumaric acid", "value": 60.2, "unit": "%"}, {"measurement": "% Reversal [mean]", "setting": "0.3 mg/kg, 5 h after administration", "value": "54.1** %"}, {"measurement": "% Reversal [mean]", "setting": "0.3 mg/kg, 5 h after administration, listed as product prepared with Compound A155(a) and fumaric acid", "value": 54.1, "unit": "%"}, {"measurement": "% Reversal [mean]", "setting": "0.3 mg/kg, 7 h after administration", "value": "39.4** %"}, {"measurement": "% Reversal [mean]", "setting": "0.3 mg/kg, 7 h after administration, listed as product prepared with Compound A155(a) and fumaric acid", "value": 39.4, "unit": "%"}, {"measurement": "% Reversal [mean]", "setting": "1 mg/kg, 1 h after administration", "value": "79.4** %"}, {"measurement": "% Reversal [mean]", "setting": "1 mg/kg, 3 h after administration", "value": "84.1** %"}, {"measurement": "% Reversal [mean]", "setting": "1 mg/kg, 5 h after administration", "value": "78.2** %"}, {"measurement": "% Reversal [mean]", "setting": "1 mg/kg, 7 h after administration", "value": "70.5** %"}, {"measurement": "% Reversal [mean]", "setting": "3 mg/kg, 1 h after administration", "value": "80.3** %"}, {"measurement": "% Reversal [mean]", "setting": "3 mg/kg, 1 h after administration, listed as product prepared with Compound A155(a) and fumaric acid", "value": 80.3, "unit": "%"}, {"measurement": "% Reversal [mean]", "setting": "3 mg/kg, 3 h after administration", "value": "87.9** %"}, {"measurement": "% Reversal [mean]", "setting": "3 mg/kg, 3 h after administration, listed as product prepared with Compound A155(a) and fumaric acid", "value": 87.9, "unit": "%"}, {"measurement": "% Reversal [mean]", "setting": "3 mg/kg, 5 h after administration", "value": "86.6** %"}, {"measurement": "% Reversal [mean]", "setting": "3 mg/kg, 5 h after administration, listed as product prepared with Compound A155(a) and fumaric acid", "value": 86.6, "unit": "%"}, {"measurement": "% Reversal [mean]", "setting": "3 mg/kg, 7 h after administration", "value": "97.3** %"}, {"measurement": "% Reversal [mean]", "setting": "3 mg/kg, 7 h after administration, listed as product prepared with Compound A155(a) and fumaric acid", "value": 97.3, "unit": "%"}, {"measurement": "% Reversal [mean]", "setting": "10 mg/kg, 1 h after administration", "value": "102.5** %"}, {"measurement": "% Reversal [mean]", "setting": "10 mg/kg, 3 h after administration", "value": "94.1** %"}, {"measurement": "% Reversal [mean]", "setting": "10 mg/kg, 5 h after administration", "value": "97.3** %"}, {"measurement": "% Reversal [mean]", "setting": "10 mg/kg, 7 h after administration", "value": "93.1** %"}]}]}
